Assay results taken from the NIST ThermoML archive (doi:10.1016/j.tca.2014.09.011).
Values joined by “and” are separate entries in the source; they are usually repeats but may differ in a detail not shown here. Equal entries are not always repeated.

Conditions: Liquid, Rate of evaporation

CCCCO [butan-1-ol]
Conditions | vapor or sublimation pressure
301.02 K | 1.09 kPa
305.59 K | 1.46 kPa
310.16 K | 1.92 kPa
310.26 K | 1.96 kPa
310.29 K | 1.9 kPa and 1.91 kPa
314.75 K | 2.67 kPa
314.76 K | 2.6 kPa and 2.5 kPa
314.81 K | 2.61 kPa
321.34 K | 4.15 kPa and 4.19 kPa
322.07 K | 4.33 kPa
322.58 K | 4.48 kPa
322.69 K | 4.52 kPa
323.09 K | 4.54 kPa
323.14 K | 4.54 kPa
323.5 K | 4.62 kPa
323.67 K | 4.69 kPa
323.78 K | 4.75 kPa
323.9 K | 4.74 kPa
324.18 K | 4.79 kPa
324.28 K | 4.85 kPa
324.57 K | 4.91 kPa
324.59 K | 4.87 kPa
324.8 K | 4.95 kPa
324.91 K | 4.98 kPa
333.51 K | 8.09 kPa
334.32 K | 8.38 kPa
341.78 K | 12.79 kPa
343.2 K | 13.52 kPa
343.36 K | 13.71 kPa
343.39 K | 14.44 kPa
352.7 K | 21.03 kPa
360.58 K | 32.09 kPa

CCO [ethanol]
Conditions | vapor or sublimation pressure [kPa]
301.1 K | 9.07
305.47 K | 10.94
305.54 K | 11.69
305.63 K | 11.08
305.68 K | 11.85

CCCCCCCCO [octan-1-ol]
Conditions | vapor or sublimation pressure [kPa]
319.82 K | 0.06
324.46 K | 0.09
333.93 K | 0.21
343.23 K | 0.38
343.39 K | 0.4
348.15 K | 0.54
362.32 K | 1.36
390.95 K | 6.14

Cc1ccccc1 [toluene]
Conditions | vapor or sublimation pressure [kPa]
300.89 K | 4.47
305.64 K | 5.17
305.68 K | 5.23
324.21 K | 13.4
